Assay results from patent publication US7705025B2, “Histamine H3 receptor agents, preparation and therapeutic uses” (Eli Lilly and Company, priority 2004, dated 2010).
pKi: −log10 of the molar value.

Biological target: T1, human histamine 3 receptor (Homo sapiens, UniProt Q9Y5N1)
T1 construct: expressed in transfected cells; membranes
Assay: H3R binding assay (competitive inhibition SPA, [3H] α methylhistamine)
Details: membranes of HEK293 clone H3R8
From the text: The compounds of the present invention can readily be evaluated by using a competitive inhibition Scintillation Proximity Assay (SPA) based on a H3R binding assay using [3H] α methylhistamine as ligand. Stable cell lines, including but not limited to HEK can be transfected with cDNA coding for H3R to prepare membranes used for the binding assay. The technique is illustrated below (Preparation of Histamine Receptor Subtype Membranes) for the histamine receptor subtypes.
cDNA for the human histamine 1 receptor (H1R) was cloned into a mammalian expression vector containing the CMV promoter (pcDNA3.1(+), Invitogen) and transfected into HEK293 cells using the FuGENE Tranfection Reagent (Roche Diagnostics Corporation). Transfected cells were selected using G418 (500 μ/mL). Colonies that survived selection were grown and tested for histamine binding to cells grown in 96-well dishes using a scintillation proximity assay (SPA) based radioligand binding assay. Briefly, cells, representing individual selected clones, were grown as confluent monolayers in 96-well dishes (Costar Clear Bottom Plates, #3632) by seeding wells with 25,000 cells and growing for 48 hours (37° C., 5% CO2). […] Plates were counted in a Wallac Trilux 1450 Microbeta scintillation counter. […]
cDNA for the human histamine 3 receptor was cloned and expressed as described in (A. Preparation H1R membranes), above. […]

T1 sequence (Q9Y5N1 whole entry): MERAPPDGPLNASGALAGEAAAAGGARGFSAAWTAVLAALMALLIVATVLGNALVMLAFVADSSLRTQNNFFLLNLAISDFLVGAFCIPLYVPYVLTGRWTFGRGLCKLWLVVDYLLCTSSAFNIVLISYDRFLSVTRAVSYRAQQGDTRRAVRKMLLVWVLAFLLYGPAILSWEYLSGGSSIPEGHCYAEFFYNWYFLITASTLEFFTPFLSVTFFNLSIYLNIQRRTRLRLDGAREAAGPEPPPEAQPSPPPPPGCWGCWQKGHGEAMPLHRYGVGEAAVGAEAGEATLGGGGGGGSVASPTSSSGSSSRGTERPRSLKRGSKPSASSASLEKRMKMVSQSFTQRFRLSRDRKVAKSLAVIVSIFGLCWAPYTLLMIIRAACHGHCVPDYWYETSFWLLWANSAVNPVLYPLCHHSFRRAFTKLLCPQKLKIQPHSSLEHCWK

Row | pKi | SMILES
1 | 7.86 | O=C(c1ccc(-c2cccs2)nc1)N1CCC[C@H]1CN1CCCC1
2 | 8.51 | O=C(c1ccc(-c2nc(-c3cccnc3)cs2)cc1)N1CCC[C@H]1CN1CCCC1
